One assay deals with P. aeruginosa (BAMF). Nature of the assay: Broth serial dilution MIC / growth inhibition in 96-well plate. Type of assay: cell-based, Pseudomonas aeruginosa. The procedure: (§1) 3 mg/ml stock solutions of PFD, RsC1, RsC1-PFD (1:1 complex), RsC4, and RsC4-PFD (1:1 complex) were prepared in DMSO (bcoz host soluble in DMSO solution). From the stock, a working solution 4× (highest conc. for each compound in plate) was prepared in LB media. 50 uL of LB media was first added in each well (96 well plate). Then a 4× solution of the respective compound was added to the first row (A4-A12) except A1-A3 (Positive control/bacterial innoculum). Then, the 4× was serially diluted up to well G for all 3 compounds. (A-G). Then, a 50 uL aliquot of the 100-fold diluted bacterial inoculum was added in each test well. Individual test concentrations (in triplicate wells in a 96-well plate) for the given compounds were achieved by serial dilution by using LB medium. Total volume in each well is 100 uL. The final-test concentration range for the individual test compounds for C. acnes, S. aureus and P. aeruginosa are as follows: PFD, RsC1, RsC4, RsC1-PFD complex and RsC4-PFD complex (128-2 ug/mL).

For assay [1], the system named is Staphylococcus aureus (G+ve) bacteria. The experiment in a line: Zone of inhibition (ZI) paper disc test, antibacterial/antioxidant activity. Type of assay: cell-based. On the procedure: Tests were conducted to check the antioxidant/antibacterial activity of macrocycle and host-guest compounds. 5 uL of 0.01M compound, 5 uL (premixed, 0.01M compound+1M Pyrogallol, 1:1) and 5 uL (premixed, 0.01M compound+0.88M H2O2, 1:1) were added on paper discs placed on plates. 5 uL of 1M pyrogallol, 5 uL of 0.88M H2O2 were used as control (oxidants). In the following tables, Decrease/Increase means wrt pure H2O2 or pyrogallol. […] Zone=mm of zone width around disk.

The test system of assay [2] is Pseudomonas aeruginosa (G-ve) bacteria. The assay is described as above. Format: cell-based. On the procedure: (§2) Tests were conducted to check the antioxidant/antibacterial activity of macrocycle and host-guest compounds. 5 uL of 0.01M compound, 5 uL (premixed, 0.01M compound+1M Pyrogallol, 1:1) and 5 uL (premixed, 0.01M compound+0.88M H2O2, 1:1) were added on paper discs placed on plates. 5 uL of 1M pyrogallol, 5 uL of 0.88M H2O2 were used as control (oxidants). In the following tables, Decrease/Increase means wrt pure H2O2 or pyrogallol. […] Zone=mm of zone width around disk. Decrease/Increase wrt pure H2O2 or pyrogallol.

The next assay deals with E. Coli (G-ve) bacteria. Described as above. Type of assay: cell-based. The procedure:
as §2

The subject of assay [3] is klebsiella pneumoniae (G -ve) bacteria. The assay is described as above. Type of assay: cell-based. The procedure: as §2
The test system of a further assay is S. aureus (MU50). The experiment in a line: Broth serial dilution MIC / growth inhibition in 96-well plate. Format: cell-based, Staphylococcus aureus. The procedure:
as §1

A further assay relates to C. acnes. Described as above. Format: cell-based, Cutibacterium acnes. The procedure: 3 mg/ml stock solutions of RsC1, PFD and RsC1-PFD were prepared in DMSO (bcoz host soluble in DMSO solution). From the stock, a working solution 4× (highest conc. for each compound in plate) was prepared in LB media. 50 uL of LB media were first added in each well (96 well plate). Then a 4× solution of each respective compound was added to the first row (A4-A12) except A1-A3 (Positive control/bacterial innoculum). Then the 4× was serially diluted up to well G for all 3 compounds. (A-G). Then, a 50 uL aliquot of the 100-fold diluted bacterial inoculum was added in each test well. Individual test concentrations (in triplicate wells in a 96-well plate) for the given compounds were achieved by serial dilution by using LB medium. Total volume in each well was 100 uL. The final-test concentration range for the individual test compounds for C. acne were as follows: Macrocycle, PFD and RsC1-PFD complex (128-2 ug/mL). The results are shown in FIG. 10, which is a bar plot of absorbance (at 600 nm) at various test compound concentrations, showing the percent inhibition of pathogen growth in the presence of decreasing concentrations of the test compounds using a twofold dilution series.
as §1, with “RsC4-PFD” for “RsC1, RsC1-PFD”, “complex),” for “complex), RsC4,”, “RsC4” for “RsC4-PFD (1:1 complex)”, “acne” for “acnes, S. aureus and P. aeruginosa are”, “Macrocycle, PFD” for “PFD, RsC1, RsC4, RsC1-PFD complex”
as §1

[4] abbreviates: test range 128-2 ug/mL, LB medium.
Setting [5] is: from ZI change with H2O2 / pyrogallol.
The mark [6] stands for this setting: premixed 0.01M compound + 0.88M H2O2, 1:1.
Setting [7] is: premixed 0.01M compound + 1M Pyrogallol, 1:1.

Converted amounts (≈) assume the structure as drawn. “Also recorded” adds a separate entry of the source.

This note sets out measurements from US11858899B2, “Complexation of pirfenidone with polyphenolic calixarene or resorcin[4]arenes” (University of Cincinnati, priority 2021, dated 2024).

For `CC1c2cc(c(O)cc2O)C(C)c2cc(c(O)cc2O)C(C)c2cc(c(O)cc2O)C(C)c2cc1c(O)cc2O` (stereo not drawn) [RsC1, C-methylresorcin[4]arene], the “GI (growth inhibition)” value in the assay with P. aeruginosa (BAMF) (at the MIC concentration) turned out to be 47%; in the assay on S. aureus (MU50) (at the MIC concentration) it was 98%; with C. acnes (at the MIC concentration), 96%. The minimum inhibitory concentration (MIC) with P. aeruginosa (BAMF) (setting [4]) came out at 64 µg/mL (≈ 118 µM); in the assay with S. aureus (MU50) (setting [4]), 16 µg/mL (≈ 29.4 µM); in the assay with C. acnes (setting [4]) it was 64 µg/mL (≈ 118 µM). For the same compound, the “Inference: radical scavenger” value in assay [1] (setting [5]) is on record as “potential/Low”; in assay [2] (from ZI change with H2O2 / pyrogallol, listed as R1) it was “low antioxidant activity; also recorded: Low radical”; with E. Coli (G-ve) bacteria (setting [5]) it was “Moderate”; in assay [3] (setting [5]), “Moderate”. Also, the “Inference: Anti-bacterial potential” value in assay [1] (from ZI of pure compound, listed as R1) is listed as “slight anti-bacterial activity”. The “Zone of inhibition (ZI), 5 uL of (Compound + H2O2)” value in assay [1] (premixed 0.01M compound + 0.88M H2O2, 1:1, decrease vs pure H2O2 = antioxidant) is listed as “(4.2 mm)”; in assay [2] (setting [6]) it was “(2.1 mm)”; in the assay on E. Coli (G-ve) bacteria (setting [6]) it was “(1.9 mm)”; in assay [3] (setting [6]), “(2.4 mm)”. The “Zone of inhibition (ZI), 5 uL of (Compound + Pyrogallol)” value in assay [1] (premixed 0.01M compound + 1M Pyrogallol, 1:1, decrease vs pure pyrogallol = antioxidant) is recorded as “(2.5 mm)”; in assay [2] (setting [7]) it was “pyrogallol (1.2 mm”; in the assay with E. Coli (G-ve) bacteria (setting [7]), “No ZI”; in assay [3] (setting [7]), “No ZI”. Also, the “Zone of inhibition (ZI), 5 uL of 0.01M Compound” value is “(1.2 mm)” in assay [1] (pure compound on paper disc, zone width around disk); “No ZI” in assay [2] (pure compound on paper disc); “No ZI” in the assay on E. Coli (G-ve) bacteria (pure compound on paper disc); “No ZI” in assay [3] (pure compound on paper disc). In addition, the “percent inhibition of pathogen growth” value in the assay on C. acnes (at 16 μg/mL, absorbance at 600 nm (FIG. 10)) is given as 35%.

As usually defined, the MIC is the lowest concentration that inhibits growth of the organism. Low readings indicate inhibition by little substance, high ones a need for much substance.
